Source: patent US11542254B2, “Methods and composition of 4-substituted benzoylpiperazine-1-substituted carbonyls as beta-catenin/B-cell lymphoma 9 inhibitors” (University of Utah Research Foundation, priority 2016, dated 2023)
Where a name gives a salt, the structure may show the parent alone.

Target: β-catenin/BCL9 PPI (Homo sapiens (Human), UniProt P35222)
Test: AlphaScreen competitive inhibition assay, wild-type β-catenin/BCL9 PPI
Assay type: binding
Conditions: for Ki / AlphaScreen Ki relative to compound 2 (higher / worse): wild-type β-catenin/BCL9 PPI; for Ki: AlphaScreen competitive inhibition, mean ± SD (n=3); for AlphaScreen Ki relative to compound 2 (higher / worse): compared with compound 2
Procedure: Cells were cultured in LB medium with 30 μg/mL kanamycin until the OD600 was approximately 0.8, and then protein expression was induced with 400 μM of IPTG at 20° C. overnight. Cells were lysed by sonication. […] Native non-denaturing gel electrophoresis was performed to confirm the homogeneity of the purified proteins. Thermal-shift assay was performed on an iCycler iQ Real Time Detection System (Bio-Rad) to monitor protein stability and detect protein aggregation. Protein unfolding was evaluated through measuring the fluorescence changes of fluorescent dye Sypro Orange when interacting with wild-type or mutant β-catenin proteins. A temperature increment of 1°/min was applied. […] All spectra were recorded at room temperature, and the baseline control containing all of the substances except protein. Sample were prepared at a concentration around 1-5 μM in a buffer of 10 mM potassium phosphate and 100 mM potassium fluoride at pH 7.0 to ensure that the transmission of light through the sample was not restricted. […] Proteins were aliquoted and stored at −80° C.
25. Alphascreen Competitive Inhibition Assays Using Wild-Type and Mutant β-Catenin Proteins

β-catenin/BCL9 PPI, sequence (P35222 138-686): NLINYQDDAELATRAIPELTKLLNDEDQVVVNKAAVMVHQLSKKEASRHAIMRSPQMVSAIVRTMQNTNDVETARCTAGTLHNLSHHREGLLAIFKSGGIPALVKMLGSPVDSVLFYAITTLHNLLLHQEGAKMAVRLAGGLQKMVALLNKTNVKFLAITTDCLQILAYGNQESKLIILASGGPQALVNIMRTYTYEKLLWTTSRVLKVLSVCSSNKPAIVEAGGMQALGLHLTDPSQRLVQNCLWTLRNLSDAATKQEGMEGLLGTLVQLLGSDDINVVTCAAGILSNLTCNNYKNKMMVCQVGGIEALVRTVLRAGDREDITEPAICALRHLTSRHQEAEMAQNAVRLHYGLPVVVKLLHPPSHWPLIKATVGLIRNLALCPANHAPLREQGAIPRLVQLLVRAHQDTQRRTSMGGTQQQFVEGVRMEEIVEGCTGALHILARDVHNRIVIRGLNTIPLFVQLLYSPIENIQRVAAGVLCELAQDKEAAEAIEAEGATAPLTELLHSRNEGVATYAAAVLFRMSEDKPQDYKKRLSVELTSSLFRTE

Row | SMILES | Ki [µM] | AlphaScreen Ki relative to compound 2 (higher / worse) | inhibition of β-catenin/BCL9 PPI at the highest concentration tested (500 μM, AlphaScreen)
1 | NCCOc1ccc(C(N)=O)cc1-c1ccc(F)cc1 [Compound 1, 2-((5-carbamoyl-4′-fluoro-[1,1′-biphenyl]-2-yl)oxy)ethan-1-aminium chloride] | 130 ± 6.9 | – | –
2 | Cl.Cl.O=C(c1cc(F)cc(N2CCNCC2)c1)N1CCN(C(=O)c2cnc(O[C@H]3CCNC3)c(-c3ccc(F)cc3)c2)CC1 [Compound 3, (S)-(4-(3-Fluoro-5-(piperazin-1-yl)benzoyl)piperazin-1-yl)(5-(4-fluorophenyl)-6-(pyrrolidin-3-yloxy)pyridin-3-yl)methanone hydrochloride] | 82 ± 12 | 4 fold | –
3 | Cl.Cl.NCCc1cc(F)cc(C(=O)N2CCN(C(=O)c3cnc(O[C@H]4CCNC4)c(-c4ccc(F)cc4)c3)CC2)c1 [Compound 4, (S)-(4-(3-(2-Aminoethyl)-5-fluorobenzoyl)piperazin-1-yl)(5-(4-fluorophenyl)-6-(pyrrolidin-3-yloxy)pyridin-3-yl)methanone hydrochloride] | > 500 | – | no obvious inhibition
4 | NCCc1cc(F)cc(C(=O)N2CCN(C(=O)c3ccc(O[C@H]4CCNC4)c(-c4ccc(F)cc4)c3)CC2)c1 [Compound 5, (S)-(4-(3-(2-Aminoethyl)-5-fluorobenzoyl)piperazin-1-yl)(4′-fluoro-6-(pyrrolidin-3-yloxy)-[1,1′-biphenyl]-3-yl)methanone hydrochloride] | 67 ± 13 | – | –
5 | O=C(c1cc(F)cc(O[C@H]2CCNC2)c1)N1CCN(C(=O)c2ccc(O[C@H]3CCNC3)c(-c3ccc(F)cc3)c2)CC1 [Compound 6, (4-(3-Fluoro-5-(((S)-pyrrolidin-3-yl)oxy)benzoyl)piperazin-1-yl) (4′-fluoro-6-(((S)-pyrrolidin-3-yl)oxy)-[1,1′-biphenyl]-3-yl) methanone hydrochloride] | 48 ± 11 | – | –
6 | O=C(c1cc(F)cc(O[C@@H]2CCNC2)c1)N1CCN(C(=O)c2ccc(O[C@H]3CCNC3)c(-c3ccc(F)cc3)c2)CC1 [Compound 7, (4-(3-Fluoro-5-(((R)-pyrrolidin-3-yl)oxy)benzoyl)piperazin-1-yl) (4′-fluoro-6-(((S)-pyrrolidin-3-yl)oxy)-[1,1′-biphenyl]-3-yl) methanone hydrochloride] | 35 ± 9.6 | – | –
7 | O=C(c1cc(F)cc(C2CCNCC2)c1)N1CCN(C(=O)c2ccc(O[C@H]3CCNC3)c(-c3ccc(F)cc3)c2)CC1 [Compound 8, (S)-(4-(3-Fluoro-5-(piperidin-4-yl)benzoyl)piperazin-1-yl)(4′-fluoro-6-(pyrrolidin-3-yloxy)-[1,1′-biphenyl]-3-yl)methanone hydrochloride] | 20 ± 2.3 | – | –
8 | Cl.Cl.O=C(c1cc(F)cc(N2CCNCC2)c1)N1CCN(C(=O)c2ccc(O[C@H]3CCNC3)c(-c3ccc(F)c(F)c3)c2)CC1 [Compound 9, (S)-(4-(3′,4′-Difluoro-6-(pyrrolidin-3-yloxy)-[1,1′-biphenyl]-3-carbonyl)piperazin-1-yl)(3-fluoro-5-(piperazin-1-yl)phenyl) methanone hydrochloride] | 57 ± 33 | approximately 3 fold | –
9 | O=C(c1cc(F)cc(N2CCNCC2)c1)N1CCN(C(=O)c2ccc(O[C@H]3CCNC3)c(C3CCCC3)c2)CC1 [Compound 11, (S)-(4-(3-Cyclopentyl-4-(pyrrolidin-3-yloxy)benzoyl)piperazin-1-yl)(3-fluoro-5-(piperazin-1-yl)phenyl)methanone hydrochloride] | 37 ± 8 | – | –
10 | O=C(c1cc(F)cc(N2CCNCC2)c1)N1CCN(C(=O)c2ccc(O[C@H]3CCNC3)c(C3CCC(C(F)(F)F)CC3)c2)CC1 (stereo partly drawn) [Compound 13, (S)-(4-(3-Fluoro-5-(piperazin-1-yl)benzoyl)piperazin-1-yl)(4-(pyrrolidin-3-yloxy)-3-(4-(trifluoromethyl)cyclohexyl)phenyl)methanone hydrochloride] | 170 ± 7.5 | – | –
11 | CC1(C)CCC(c2cc(C(=O)N3CCN(C(=O)c4cc(F)cc(N5CCNCC5)c4)CC3)ccc2O[C@H]2CCNC2)CC1 [Compound 15, (S)-(4-(3-(4,4-Dimethylcyclohexyl)-4-(pyrrolidin-3-yloxy)benzoyl)piperazin-1-yl) (3-fluoro-5-(piperazin-1-yl)phenyl) methanone hydrochloride] | 45 ± 6.7 | – | –
12 | O=C(c1cc(F)cc(N2CCNCC2)c1)N1CCN(C(=O)c2ccc(O[C@H]3CCNC3)c(C3CCC(F)(F)CC3)c2)CC1 [Compound 16, (S)-(4-(3-(4,4-Difluorocyclohexyl)-4-(pyrrolidin-3-yloxy)benzoyl)piperazin-1-yl)(3-fluoro-5-(piperazin-1-yl)phenyl)methanone hydrochloride] | 53 ± 22 | – | –
13 | Cc1cc(C(=O)N2CCN(C(=O)c3cc(F)cc(N4CCNCC4)c3)CC2)ccc1O[C@H]1CCNC1 [Compound 17, (S)-(4-(3-Fluoro-5-(piperazin-1-yl)benzoyl)piperazin-1-yl)(3-methyl-4-(pyrrolidin-3-yloxy)phenyl) methanone hydrochloride] | 490 ± 150 | – | –
14 | O=C(c1cc(Cl)cc(N2CCNCC2)c1)N1CCN(C(=O)c2ccc(O[C@H]3CCNC3)c(C3CCCCC3)c2)CC1 [Compound 18, (S)-(4-(3-Chloro-5-(piperazin-l-yl)benzoyl)piperazin-1-yl)(3-cyclohexyl-4-(pyrrolidin-3-yloxy)phenyl)methanone hydrochloride] | 76 ± 9.9 | – | –
15 | Cc1cc(C(=O)N2CCN(C(=O)c3ccc(O[C@H]4CCNC4)c(C4CCCCC4)c3)CC2)cc(N2CCNCC2)c1 [Compound 19, (S)-(4-(3-Cyclohexyl-4-(pyrrolidin-3-yloxy)benzoyl)piperazin-1-yl) (3-methyl-5-(piperazin-1-yl)phenyl)methanone hydrochloride] | 25 ± 1.7 | – | –
16 | O=C(c1cc(N2CCNCC2)cc(C(F)(F)F)c1)N1CCN(C(=O)c2ccc(O[C@H]3CCNC3)c(C3CCCCC3)c2)CC1 [Compound 20, (S)-(4-(3-Cyclohexyl-4-(pyrrolidin-3-yloxy)benzoyl)piperazin-1-yl) (3-(piperazin-1-yl)-5-(trifluoromethyl)phenyl) methanone hydrochloride] | 69 ± 8.7 | – | –
17 | O=C(c1cc(Br)cc(N2CCNCC2)c1)N1CCN(C(=O)c2ccc(O[C@H]3CCNC3)c(C3CCCCC3)c2)CC1 [Compound 21, (S)-(4-(3-Bromo-5-(piperazin-1-yl)benzoyl)piperazin-1-yl)(3-cyclohexyl-4-(pyrrolidin-3-yloxy)phenyl)methanone hydrochloride] | 55 ± 2.7 | – | –
18 | C[C@H]1CN(C(=O)c2cc(F)cc(N3CCNCC3)c2)CCN1C(=O)c1ccc(O[C@H]2CCNC2)c(-c2ccc(F)cc2)c1 [Compound 62, 4-(3-Fluoro-5-((S)-4-(4′-fluoro-6-(((S)-pyrrolidin-1-ium-3-yl)oxy)-[1,1′-biphenyl]-3-carbonyl)-3-methylpiperazine-1-carbonyl)phenyl)piperazin-1-ium chloride] | 110 ± 50 | – | –
19 | CC[C@H]1CN(C(=O)c2cc(F)cc(N3CCNCC3)c2)CCN1C(=O)c1ccc(O[C@H]2CCNC2)c(-c2ccc(F)cc2)c1 [Compound 63, 4-(3-((S)-3-Ethyl-4-(4′-fluoro-6-(((S)-pyrrolidin-1-ium-3-yl)oxy)-[1,1′-biphenyl]-3-carbonyl)piperazine-1-carbonyl)-5-fluorophenyl)piperazin-1-ium chloride] | 10 ± 10 | – | –
20 | CC(C)[C@H]1CN(C(=O)c2cc(F)cc(N3CCNCC3)c2)CCN1C(=O)c1ccc(O[C@H]2CCNC2)c(-c2ccc(F)cc2)c1 [Compound 64, 4-(3-Fluoro-5-((5)-4-(4′-fluoro-6-(((S)-pyrrolidin-1-ium-3-yl)oxy)-[1,1′-biphenyl]-3-carbonyl)-3-isopropylpiperazine-1-carbonyl)phenyl)piperazin-1-ium chloride] | 45 | – | –
21 | CC(C)C[C@H]1CN(C(=O)c2cc(F)cc(N3CCNCC3)c2)CCN1C(=O)c1ccc(O[C@H]2CCNC2)c(-c2ccc(F)cc2)c1 [Compound 68, 4-(3-Fluoro-5-((5)-4-(4′-fluoro-6-(((S)-pyrrolidin-1-ium-3-yl)oxy)-[1,1′-biphenyl]-3-carbonyl)-3-isobutylpiperazine-1-carbonyl)phenyl)piperazin-1-ium chloride] | 22 | – | –
22 | O=C(c1cc(F)cc(N2CCNCC2=O)c1)N1CCN(C(=O)c2ccc(O[C@H]3CCNC3)c(C3CCCCC3)c2)CC1 [Compound 75, (S)-1-(3-(4-(3-Cyclohexyl-4-(pyrrolidin-3-yloxy)benzoyl)piperazine-1-carbonyl)-5-fluorophenyl)piperazin-2-one hydrochloride] | 39 ± 7 | – | –
23 | O=C(c1cc(F)cc(N2CCNCC2=O)c1)N1CCN(C(=O)c2ccc(O[C@H]3CCNC3)c(C3CCC(C(F)(F)F)CC3)c2)CC1 (stereo partly drawn) [Compound 76, (S)-1-(3-Fluoro-5-(4-(4-(pyrrolidin-3-yloxy)-3-(4-(trifluoromethyl)cyclohexyl)benzoyl)piperazine-1-carbonyl)phenyl)piperazin-2-one hydrochloride] | 14 ± 3.6 | – | –
